Patent US8198323B2, “Curcumin analogues and uses thereof” (The University of North Carolina at Chapel Hill, priority 2004, dated 2012)
Substitutions are numbered along the chain they refer to. “Also recorded” adds a separate entry of the source. One block for each molecule: values may come before it.

How the values were obtained:
Assay type in all cases: cell-based
mutant AR in LNCaP cells = molecular target: T1, mutant AR in LNCaP cells (Homo sapiens, UniProt P10275, T878A); experiment: LNCaP AR transactivation assay / LNCaP cell growth assay (Table 2); details: 1 nM DHT, symbols 0, +, ++ not defined
T1 construct: LNCaP cells, which express a clinically relevant mutant AR; endogenous in cells; host or cells: LNCaP
T1 sequence (P10275 1-920 T878A): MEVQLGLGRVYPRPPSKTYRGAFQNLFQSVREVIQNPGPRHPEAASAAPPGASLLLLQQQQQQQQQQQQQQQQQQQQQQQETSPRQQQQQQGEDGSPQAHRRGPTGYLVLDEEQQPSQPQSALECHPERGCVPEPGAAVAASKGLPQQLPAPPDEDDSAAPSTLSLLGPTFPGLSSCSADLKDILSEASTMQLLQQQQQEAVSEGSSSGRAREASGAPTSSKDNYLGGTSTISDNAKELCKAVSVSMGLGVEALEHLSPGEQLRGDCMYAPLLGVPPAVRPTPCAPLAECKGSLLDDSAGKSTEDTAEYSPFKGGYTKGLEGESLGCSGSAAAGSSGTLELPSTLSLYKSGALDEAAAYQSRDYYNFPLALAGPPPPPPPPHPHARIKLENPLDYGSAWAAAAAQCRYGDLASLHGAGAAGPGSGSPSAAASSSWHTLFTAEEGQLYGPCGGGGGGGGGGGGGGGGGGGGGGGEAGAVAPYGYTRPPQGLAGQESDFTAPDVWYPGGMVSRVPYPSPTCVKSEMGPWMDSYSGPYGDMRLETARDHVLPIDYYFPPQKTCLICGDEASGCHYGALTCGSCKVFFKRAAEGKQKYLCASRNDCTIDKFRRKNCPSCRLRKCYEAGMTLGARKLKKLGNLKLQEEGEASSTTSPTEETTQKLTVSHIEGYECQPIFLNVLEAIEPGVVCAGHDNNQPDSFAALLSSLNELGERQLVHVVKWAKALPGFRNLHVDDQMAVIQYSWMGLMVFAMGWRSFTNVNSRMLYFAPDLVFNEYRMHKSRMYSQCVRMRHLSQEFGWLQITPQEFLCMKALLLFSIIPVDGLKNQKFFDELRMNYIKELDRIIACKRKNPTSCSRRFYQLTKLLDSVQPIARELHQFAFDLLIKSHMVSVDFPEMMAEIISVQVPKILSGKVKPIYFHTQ
Description: (§1) Cell culture and transfection—Human prostate cancer LNCaP and PC-3 cells were maintained in RPMI medium and Dulbecco's minimum essential medium (DMEM), respectively. Both media were strengthened with penicillin (25 units/mL), streptomycin (25 μg/mL), and 10% fetal calf serum. Androgen receptor transactivation assay, an androgen-dependent reporter gene transcription test, was employed as the primary screening for potential antiandrogen identification. This assay was first performed in LNCaP cells, which express a clinically relevant mutant AR. Once potential compounds were indicated by LNCaP AR transactivation assay, they were re-examined for their potential activity against wild type AR. Wild type AR transactivation assay was performed in PC-3 host cells, which lack an endogenous, functional AR.
(§2) Our previously described conditions for cell transfection were followed (Ohtsu et al, J Medicinal Chem 45: 5037-5042 (2002); Ohtsu et al., Bioorganic & Medicinal Chemistry 11:5083-5090 (2003)). In brief, cells were plated in 24- or 48-well tissue culture dishes twenty-four (PC-3 cells) or forty-eight (LNCaP cells) hours prior to transfection. Subsequently, LNCaP cells were transfected with a reporter gene, MMTV-luciferase, which contains MMTV-LTR promoter and androgen receptor binding element, and PRL-SV40, which served as an internal control for transfection efficiency. PC-3 cells were transfected with a wild type AR expression plasmid, pSG5AR, in addition to the above-mentioned MMTV-luciferase reporter gene and PRL-SV40 internal control. SuperFect (Qiagen, Chatsworth, Calif.) was employed as the transfection reagent following manufacturer's recommendations. At the end of a five-hour transfection, the medium was changed to DMEM or RPMI supplemented with 10% charcoal dextran-stripped, androgen-depleted serum. Twenty-four hours later, the cells were treated with 1 nM of DHT and/or test compounds at the designated concentration for another twenty-four hours. The cells were harvested for luciferase activity assay using Dual Luciferase Assay System (Promega, Madison, Wis.). The derived data were expressed as relative luciferase activity normalized to the internal luciferase control. DHT incubation induced a marked expression of reporter gene.
LNCaP cell growth assay thus was used as an alternative to confirm potential antiandrogens identified by the above-mentioned AR transactivation assay. An MTT analysis, relying upon the conversion of a colorless substrate to reduced tetrazolium by the mitochondrial dehydrogenase, was used. The experimental conditions were detailed elsewhere (Ohtsu et al., Bioorganic & Medicinal Chemistry 11:5083-5090 (2003)). Briefly, cells were plated in 96-well tissue culture plates and then incubated for 5 consecutive days in the presence of 1 nM of DHT and/or test compounds in 10% charcoal dextran-stripped serum-containing RPMI. At the end of incubation, the cells were given MTT (5 mg/ml in PBS) for three hours at 37° C. The resultant precipitate was dissolved in a lysis buffer and then quantitated at a wavelength of 595 nm using a microplate reader. To ensure the accuracy of data derived from the MTT analysis, cell count was performed using duplicate samples.

mutant LNCaP AR = molecular target: T2, mutant LNCaP AR (Homo sapiens, UniProt P10275, T878A); experiment: AR transactivation assay (MMTV-luciferase), DU-145 cells transfected with mutant LNCaP AR and ARA70; details: FIG. 3B
T2 construct: expressed in transfected cells; host or cells: DU-145
T2 sequence (P10275 1-920 T878A): T1 sequence (P10275 1-920 T878A)
Description: (§3) Cell Culture and Transfections. Human prostate cancer DU145 and PC-3 cells were maintained in Dulbecco's minimum essential medium (DMEM) containing penicillin (25 units/mL), streptomycin (25 μg/mL), and 10% fetal calf serum (FCS). For AR transactivation assay, PC-3 cells were transfected with an AR expression plasmid and reporter gene. Because of a low content of endogenous AR coactivators, DU-145 cells were transfected with expression plasmids for AR and ARA70, and reporter gene. The conditions were followed as previously described in Miyamoto et al., Proc. Natl. Acad. Sci. USA, 95, 7379-7384 (1998), with minor modifications.
(§4) Transfections were performed using the SuperFect kit according to manufacturer's procedures (Qiagen, Chatsworth, Calif.). Briefly, 1×10^5 cells were plated on 35-mm dishes 24 h before transfection, and then a reporter plasmid, MMTV-Luciferase, which contains MMTV-LTR promoter and AR-binding element, was co-transfected with an AR expression plasmid (wild type or mutant), or pSG5ARA70. PRL-TK was used as an internal control for transfection efficiency. The total amount of DNA was adjusted to […] with pSG5 in all transcriptional activation assays. After a 2 h transfection, the medium was changed to DMEM-10% charcoal stripped serum medium, and 14-16 h later, the cells were treated with DHT, antiandrogen, or test compounds. After another 14-16 h, the cells were harvested and tested for luciferase activity in luciferase assays (Promega, Dual Luciferase Assay System, Madison, Wis.). Data were expressed in relative luciferase activity as compared to an internal luciferase positive control.

wild type AR [1] = molecular target: T3, wild type AR (Homo sapiens, UniProt P10275); experiment: AR transactivation assay (MMTV-luciferase), PC-3 cells transfected with wild-type AR; set-up: expressed in transfected cells; host or cells: PC-3; details: PC-3 cell assay system; FIG. 3A
T3 sequence (P10275 1-920): T1 sequence (P10275 1-920 T878A) with A878T
Description: as §3, with “gene.” for “gene. The conditions were followed as previously described in Miyamoto et al., Proc. Natl. Acad. Sci. USA, 95, 7379-7384 (1998), with minor modifications.”
as §4, with “Data were expressed in relative luciferase activity as compared to an internal luciferase positive control.” left out

wild type AR [2] = molecular target: T3, wild type AR; experiment: AR transactivation assay (MMTV-luciferase), DU-145 cells transfected with wild-type AR and ARA70; set-up: expressed in transfected cells; host or cells: DU-145; details: FIG. 3C; for antiandrogen activity (in words): DU-145 cells, wild-type AR and ARA70; for reduction (antiandrogen activity): DU-145 cells transfected with wild-type AR and ARA70
Description: as §3, with “gene.” for “gene. The conditions were followed as previously described in Miyamoto et al., Proc. Natl. Acad. Sci. USA, 95, 7379-7384 (1998), with minor modifications.”
as §4

wild type AR [3] = molecular target: T3, wild type AR; experiment: Wild type AR transactivation assay in PC-3 host cells (Table 2); set-up: expressed in transfected cells; host or cells: PC-3; details: PC-3 cells transfected with wild type AR, 1 nM DHT; symbols 0, +, ++ not defined
Description: as §1, §2

SMILES: COc1ccc(C(=O)CC(=O)c2ccc(OC)c(OC)c2)cc1OC [Compound 39, 1,3-bis(3,4-dimethoxyphenyl)-1,3-propandione]
- antagonistic activity against the AR (in words) (mutant LNCaP AR): less active than 4
- antagonistic activity against the AR (in words) (wild type AR [1]): less active than 4
- antiandrogen activity (in words) (wild type AR [2]): comparable or more potent antiandrogen activity than HF

SMILES: COc1ccc(/C=C/C(=O)/C=C(O)/C=C/c2ccc(OC)c(OC)c2OC)c(OC)c1OC [LL-32B]
- anti-AR activity, LNCaP (mutant AR in LNCaP cells): 0

SMILES: CCOC(=O)/C=C/C(C(=O)/C=C/c1ccc(O)c(OC)c1)=C(O)\C=C\c1ccc(O)c(OC)c1 [LL-66]
- anti-AR activity, wrAR/PC3 (wild type AR [3]): 0

SMILES: COc1ccc(/C=C/C(=O)/C=C(O)/C=C/c2ccc(OC)cc2F)c(F)c1 [HOJ-9]
- anti-AR activity, LNCaP (mutant AR in LNCaP cells): 0

SMILES: COc1ccc(/C=C/C(=O)/C=C(O)/C=C/c2ccc(OC)c(O)c2)cc1O [LL-27B]
- anti-AR activity, LNCaP (mutant AR in LNCaP cells): 0

SMILES: COc1cc(/C=C/C(=O)/C=C/c2ccc(O)c(OC)c2)ccc1O [LL-10]
- anti-AR activity, wrAR/PC3 (wild type AR [3]): 0

SMILES: COc1cc(/C=C/C(=O)/C=C(O)/C=C/c2ccc(O)c(OC)c2)ccc1O [Compound 1, Curcumin]
- antagonistic activity against the AR (in words) (mutant LNCaP AR): inactive
- antagonistic activity against the AR (in words) (wild type AR [1]): inactive
- antiandrogen activity (in words) (wild type AR [2]): inactive; also recorded: not active

SMILES: COc1ccc(/C=C/C(=O)/C=C(O)/C=C/c2ccc(OC)c(OC)c2OC)cc1OC [LL-35]
- anti-AR activity, LNCaP (mutant AR in LNCaP cells): 0

SMILES: O=C(/C=C(O)/C=C/c1ccc(O)o1)/C=C/c1ccc(O)o1 [LL-7]
- anti-AR activity, wrAR/PC3 (wild type AR [3]): 0

SMILES: COc1ccc(/C=C/C(=O)CC(O)/C=C/c2ccc(OC)c(OC)c2)cc1OC (centres unmarked) [LL-55]
- anti-AR activity, wrAR/PC3 (wild type AR [3]): 0

SMILES: COc1cc(/C=C/C(O)=C/C(=O)/C=C/c2ccc(O)cc2)ccc1O [LL-18]
- anti-AR activity, LNCaP (mutant AR in LNCaP cells): 0

Second part, led by results:

- anti-AR activity, LNCaP (mutant AR in LNCaP cells): 0
SMILES: COc1cc(/C=C/C(O)=C/C(=O)/C=C/c2ccc(OC)c(OC)c2)ccc1O [LL-17]

- anti-AR activity, wrAR/PC3 (wild type AR [3]): 0
SMILES: COc1ccc(/C=C/C(=O)C(C)(F)C(=O)/C=C/c2ccc(OC)c(OC)c2)cc1OC [LL-62]

- antagonistic activity against the AR (in words) (mutant LNCaP AR): significantly less active than 4
SMILES: COc1cc(C=CC(=O)CC(=O)C=Cc2ccc(OC)c(OC)c2)ccc1O [Compound 9, Monomethylcurcumin]

- reduction (antiandrogen activity) (wild type AR [2]): 54%
SMILES: COC(=O)COc1ccc(C=CC(=O)CC(=O)C=Cc2ccc(OCC(=O)OC)c(OC)c2)cc1OC [Compound 20]
- antiandrogen activity (in words) (wild type AR [2]): comparable or more potent antiandrogen activity than HF

- anti-AR activity, LNCaP (mutant AR in LNCaP cells): 0
SMILES: COc1cc(OC)c(OC)cc1/C=C/C(O)=C/C(=O)/C=C/c1ccc(OC)c(OC)c1 [LL-36]

- reduction (antiandrogen activity) (wild type AR [2]): 53.8%
SMILES: CCOC(=O)CCC(C(=O)C=Cc1ccc(O)c(OC)c1)C(=O)C=Cc1ccc(O)c(OC)c1 (centres unmarked) [Compound 22]
- antiandrogen activity (in words) (wild type AR [2]): comparable or more potent antiandrogen activity than HF
